Values of other authors as cited in patent US20110130355A1, “USE OF SOPHORICOSIDE IN THE MANUFACTURE OF MEDICAMENTS” (priority 2008, published 2011).
Read-outs that look alike come from different tables or passages of the source.

How the values were obtained:
[1] = test system: rabbit articular chondrocytes; conditions: cited from earlier work
[2] = test system: femoral-metaphyseal tissues; conditions: in vitro, tissues from aging female rats; cited from earlier work
ovariectomized rats = conditions: cited from earlier work

Row | SMILES | degradation of proteoglycan induced by interleukin (IL) 1β ([1]; high concentration, 10 nmol/l) | degradation of proteoglycan induced by interleukin (IL) 1β ([1]; low concentration, 0.1 nmol/l) | contents of alkaline phosphatase, DNA and calcium in the femoral-metaphyseal tissues [2] | loss of bone mass (ovariectomized rats)
1 | C[C@]12CC[C@@H]3c4ccc(O)cc4CC[C@H]3[C@@H]1CC[C@@H]2O [17β-estradiol] | increased its effect | inhibited the degradation of proteoglycan induced by interleukin (IL) 1β | – | –
2 | O=c1c(-c2ccc(O)cc2)coc2cc(O)cc(O)c12 [genistein] | – | – | substantially increases | –
3 | O=c1c(-c2ccc(O)cc2)coc2cc(O[C@@H]3O[C@H](CO)[C@@H](O)[C@H](O)[C@H]3O)cc(O)c12 [genistin, genistein-7-O-glucopyranoside] | – | – | substantially increases | prevent loss of bone mass
